Tested on: Macrophomina phaseolina
Experiment: Strawberry pot trial in the greenhouse, soil drench at planting, efficacy against Macrophomina phaseolina
Format: in vivo
Conditions: 250 g AI/ha drench at planting, strawberry 'Sweet Ann'; for Pest severity (IS 0-5; 0 = no damage, 5 = severe damage): 6 replications
Description: A strawberry pot trial was carried out in the greenhouse Vero Beach, United States to evaluate the efficacy of different compounds against Macrophomina phaseolina.
The plants were planted in 4 L pots with Vero Beach Mix (50% potting media and 50% pasteurized sand). The plants were bare root strawberry of the variety ‘Sweet Ann’. The strawberry plants were partially planted, then were inoculated with 2 grams of the infested millet. The inoculum was grown on twice sterilized millet for 1-2 weeks. The isolate used was originally isolated from strawberry. After the inoculation the roots were completely covered. At the day of planting each plant was drench applied with 100 mL of compound solution. The application dose was calculated based on a plant spacing of 30.5 cm by 45.7 cm. The plants were grown in a greenhouse that averaged 32° C. in the day and 21° C. at night. Plants were watered daily. The disease severity was evaluated after 44 and 65 days after application using a […] index scale (5=severe damage, 0=no damage).

[1] = 65 days after application (second assessment)

O=C(NCCc1ncc(C(F)(F)F)cc1Cl)c1ccccc1C(F)(F)F [Fluopyram]
% efficacy based on disease incidence (44 days after planting): 44.33% | Pest severity (IS 0-5; 0 = no damage, 5 = severe damage) (44 days after planting): 1.67,A | % efficacy based on disease incidence [1]: 1.60% | Pest severity (IS 0-5; 0 = no damage, 5 = severe damage) [1]: 4.92,A

Reference: patent publication US20230042612A1, “METHODS OF CONTROLLING OR PREVENTING INFESTATION OF PLANTS BY A PHYTOPATHOGENIC MICROORGANISM OF THE GENUS MACROPHOMINA SPP” (SYNGENTA CROP PROTECTION AG, priority 2019, published 2023)
